Our source for the IC50 and viability, T/C values is PubChem BioAssay AID1919002 (Molecular Pharmacology Branch, DTP, NCI, 2023).

This experiment concerns 743489-274-T-PDC complex spheroid growth. Kind of experiment: Anticancer human tumor 743489-274-T-PDC patient-derived renal cell carcinoma cell line growth inhibition [AhR]. Particulars: for viability, T/C: stronger effect = lower value. The method, boiled down: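 Spheroids combined tumor cells with HUVEC endothelial cells and human MSCs as stroma. AhR antagonists were paired with standard or investigational drugs, each dosed in half-log steps down from near clinical Cmax, or from 10 microM where Cmax was unknown.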

Broadly, the pIC50 is the IC50 on a negative log10 scale, so that one unit is a factor of ten. One may read the viability, T/C as the result in the treated group divided by that in the control group, in per cent.

SMILES strings stand for the structures. pIC50: −log10 of the molar value. Where “and” joins values, the source holds several entries; their conditions need not be identical. Identical values can stand only once. Bounds are passed on as bounds.
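Note: spheroids exposed to agents for 7 days before readout.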
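Throughout, for viability, T/C: 100% = DMSO vehicle control wells.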

`O=C(c1cc(Cc2n[nH]c(=O)c3ccccc23)ccc1F)N1CCN(C(=O)C2CC2)CC1` + Cc1ccccc1N=Nc1ccc(NC(=O)c2ccnn2C)c(C)c1: the negative logarithm of the IC50 (pIC50) (curve of first compound, second compound 0.1 µM) is below 5.00; the pIC50 (curve of first compound, second compound 0.316 µM) is below 5.00; the pIC50 (curve of first compound, second compound 1 µM) is below 5.00; the pIC50 (curve of first compound, second compound 3.16 µM) is below 5.00; the pIC50 (curve of first compound, second compound 10 µM) was below 5.00. Moreover, the viability, T/C by setting is: (second compound 0.1 µM, first compound 0.0316 µM) 104%; (second compound 0.1 µM, first compound 0.1 µM) 96.2%; (second compound 0.1 µM, first compound 0.316 µM) 91.8%; (second compound 0.1 µM, first compound 1 µM) 90%; (second compound 0.1 µM, first compound 3.16 µM) 108%; (second compound 0.1 µM, first compound 10 µM) 94.6%. Further, the viability, T/C by setting is: (second compound 0.316 µM, first compound 0.0316 µM) 94.4%; (second compound 0.316 µM, first compound 0.1 µM) 94.4%; (second compound 0.316 µM, first compound 0.316 µM) 94.3%; (second compound 0.316 µM, first compound 1 µM) 90.2%; (second compound 0.316 µM, first compound 3.16 µM) 91.7%; (second compound 0.316 µM, first compound 10 µM) 94.2%. In addition, the viability, T/C is 97% (second compound 1 µM, first compound 0.0316 µM); 95.2% (second compound 1 µM, first compound 0.1 µM); 111% (second compound 1 µM, first compound 0.316 µM); 96.1% (second compound 1 µM, first compound 1 µM); 93.8% (second compound 1 µM, first compound 3.16 µM); 83.3% (second compound 1 µM, first compound 10 µM). Moreover, the viability, T/C reads like this: (second compound 3.16 µM, first compound 0.0316 µM) 97%; (second compound 3.16 µM, first compound 0.1 µM) 87.5%; (second compound 3.16 µM, first compound 0.316 µM) 91.4%; (second compound 3.16 µM, first compound 1 µM) 90.6%; (second compound 3.16 µM, first compound 3.16 µM) 101%; (second compound 3.16 µM, first compound 10 µM) 99.3%. Further, the viability, T/C was 92.4% (second compound 10 µM, first compound 0.0316 µM); 110% (second compound 10 µM, first compound 0.1 µM); 106% (second compound 10 µM, first compound 0.316 µM); 96.8% (second compound 10 µM, first compound 1 µM); 92.7% (second compound 10 µM, first compound 3.16 µM); 85.4% (second compound 10 µM, first compound 10 µM).

Take `NS(=O)(=O)OCC1CC(n2ccc3c(NC4CCc5ccccc54)ncnc32)CC1O` (configuration not stated): the viability, T/C (compound 0.0316 µM) was 102% and 104% and 93.9%; the viability, T/C (compound 0.1 µM) was 105% and 121% and 96.2%; the viability, T/C (compound 0.316 µM) is 114% and 108% and 103%; the viability, T/C (compound 1 µM) was 132% and 136% and 138%; the viability, T/C (compound 3.16 µM) was 137% and 132% and 156%; the viability, T/C (compound 10 µM) is 150% and 128% and 161%. Besides, the negative-log IC50 (pIC50) (curve of compound) was below 5.00.
